System: lipoxygenase
Assay: lipoxygenase inhibition: release of leukotriene B4 (LTB4) from polymorphonuclear rat leukocytes (PMN), reverse phase HPLC, after adding substances and Ca ionophore
Format: cell-based
Details: read-out: LO inhibition IC50
Description: As a measure of the lipoxygenase inhibition, the release of leukotriene B4 (LTB4) from polymorphonuclear rat leukocytes (PMN) was determined by means of reverse phase HPLC according to Borgeat, P. et al., Proc. Nat. Acad. Sci. 76, 2148-2152 (1979) after adding substances and Ca ionophore. The in vivo activity of the compounds was determined using the mouse ear inflammation model according to Young, J. M. et al., J. of Investigative Dermatology 82, 367-371, (1984).

SMILES	IC50 [nM]
Cc1cc(Cl)c(Cl)cc1NC(=S)Nc1ccc(OCc2ccc3ccccc3n2)cc1 [Example 5]	410
O=C(NC(=S)Nc1ccc(OCc2ccc3ccccc3n2)cc1)c1ccc(Cl)cc1 [Example 6, N-(4-Chlorobenzoyl)-N'-4-(quinolin-2-yl-methoxy)-phenyl-thiourea]	360
N#CC1(NC(=S)Nc2ccc(OCc3ccc4ccccc4n3)cc2)CCCCC1 [Example 7, N-(1-Cyano-cyclohexyl)-N'-4-(quinolin-2-yl-methoxy)phenyl-thiourea]	240

The remaining lines, values ahead:

IC50 [nM]	SMILES
36	Cc1cc([N+](=O)[O-])ccc1NC(=S)Nc1ccc(OCc2ccc3ccccc3n2)cc1 [Example 3, N-(2-Methyl-4-nitrophenyl)-N'-4-(quinolin-2-yl-methoxy)phenyl-thiourea]
33	Cc1cc([N+](=O)[O-])c(Cl)cc1NC(=S)Nc1ccc(OCc2ccc3ccccc3n2)cc1 [Example 4, N-(2-Methyl-4-nitro-5-chlorophenyl)-N'-4-(quinolin-2-yl-methyloxy)phenyl-thiourea]
290	Cc1cc(Cl)ccc1NC(=S)Nc1ccc(OCc2ccc3ccccc3n2)cc1 [Example 8, N-(2-Methyl-4-chlorophenyl)-N'-4-(quinolin-2-yl-methoxy)phenyl-thiourea]

— US5120744A, “Substituted (quinolin-2-yl-methoxy)phenylthioureas” (Bayer Aktiengesellschaft, priority 1989, dated 1992)
